Consider 4 compounds from patent publication US6759238B1, “Multidrug resistance associated proteins and uses thereof” (priority 1999, dated 2004).

Several values for one entry are separate records, joined by “and”; a condition that tells them apart may be missing. Equal values may be shown once. Read-outs that look alike come from different tables or passages of the source.

The test system of series [1] is CEM-SS cells. As to the kind of experiment: Efflux of PMEA from bispom-PMEA loaded cells. Type of series: in vitro ADME, human. The settings on record: for Efflux kinetics, PMEA: CEMss. The protocol:
(§1) To examine whether the resistant cells could be altered in their capacity to retain the phosphonate analog, the clearance of [^3H]PMEA and its metabolites from CEM-SS and CME-r1 cells was determined. […] Aliquots of cells and medium sampled at different intervals over a period of 2 hr were analyzed by HPLC, and the results are shown in FIG. 4. […] Some of this clearance was probably due to the anabolism of PMEA, because the PMEAp- and PMEApp-associated radioactivity continued to accumulate within the cells, but the majority of the radioactivity was excreted into the medium as PMEA. In contrast to the results with parental cells, loss of intracellular PMEA-associated radioactivity in the resistant CEM-r1 cells was extremely rapid and the majority of the radioactivity within the cells was excreted into the medium within 20-30 minutes of incubation (FIG. 4).
(§2) Both CEM-SS and CME-r1 cells were incubated for 3 minutes with increasing concentrations (range 0.07 mM to 8.80 mM) of the prodrug for the selecting agent, Bis(POM)PMEA. After incubation, the cells were pelleted and reconstituted in drug-free medium, and the amount of PMEA present in the medium and intracellularly was measured 15 minutes after resuspension. The amount of PMEA effluxing out into the medium at 15 minutes increased initially with increasing concentration (FIG. 7A).
(§3) Referring to Table 6 in greater detail, efflux kinetics were studied. Transport analysis of PMEA was conducted as previously described^48. […] The cells were then washed free of radioactivity and then incubated in drug-free medium in the presence of sodium azide and 2-deoxy-D-glucose. At various time periods, the amount of intracellular AZTMP was measured. As reported in Table 6, depletion of ATP led to an inhibition of AZTMP efflux (i.e. a significant accumulation of AZTMP in the CEM-r1 cells but not in the CEM-SS cells).
(§4) At the indicated times, extracts were prepared from the cells and the medium, and the prodrug and its various nucleoside/nucleotide metabolites were analyzed by HPLC as described previously (24).

In series [2] the test system is CEM-SS cells. As to the kind of experiment: Uptake and metabolism of [3H]bispom-PMEA. The note with it: for Metabolite Levels, Cells / Metabolite Levels, Medium: CEM-SS, 1 μM [3H]bispom-PMEA, 15 minutes. The protocol:
(§5) Therefore, the metabolism of [^3H]bispom-PMEA (15), a lipophilic prodrug of PMEA, was analyzed in the two cell lines in order to further examine the mechanism of resistance in the mutant cell line.

The test system of series [3] is CEM-r1 cells. The series can be described thus: Uptake and metabolism of [3H]bispom-PMEA. The settings on record: for Metabolite Levels, Cells / Metabolite Levels, Medium: CEM-r1, 1 μM [3H]bispom-PMEA, 15 minutes. On the procedure:
as §5

Series [4] has as its system CEM-SS cells. As to the kind of experiment: Cytotoxicity assay (growth inhibition, Coulter counter). The protocol:
(§6) […] Each result is the mean of one representative experiment performed in duplicate. The cultures with the purine nucleosides adenosine, 2′-deoxyadenosine, and arabinosyladenine contained 5 μM deoxycoformycin to inhibit adenosine deaminase activity.
(§7) All assays were performed in 24-well tissue culture plates (Costar, Cambridge, Ma.). […] At the end of the incubation, the cell concentrations, sizes, and volumes were counted in a Coulter counter (Coulter Electronics, Hialeah. Fla.).

The subject of series [5] is CEM-r1 cells. The series can be described thus: Efflux of PMEA from bispom-PMEA loaded cells. Type of series: in vitro ADME, human. On the procedure: as §1, §2
CEM-r1 cells were incubated with 0.07-8.8 mM Bis(POM)PMEA for 3 minutes. The cells were pelleted and reconstituted in either drug-free medium or in medium containing 0.5 mM PMEA, and the amount of PMEA present in the medium and intracellularly was measured 15 minutes after resuspension.
as §3, §4

Series [6] relates to CEM-r1 cells. As to the kind of experiment: Cytotoxicity assay (growth inhibition, Coulter counter). The note with it: for Relative Resistance: CEM-r1 vs CEM-SS (Table 3). The protocol: (§8) Selection for PMEA resistance was carried out by exposing CEM-SS cells in culture to increasing concentrations of PMEA, over several months.
(§9) The IC50 values were obtained after 2 days of culture. Each result is the mean of one representative experiment performed in duplicate. The cultures with the purine nucleosides adenosine, 2′-deoxyadenosine, and arabinosyladenine contained 5 μM deoxycoformycin to inhibit adenosine deaminase activity.
as §7

The subject of series [7] is CEM-SS cells. As to the kind of experiment: Uptake and metabolism of [3H]PMEA. The settings on record: 10 μM [3H]PMEA.
Method: (§12) The mutant and parental cells were incubated with 10 μM [^3H]PMEA and at various times were analyzed for intracellular levels of PMEA and its metabolites by Partisil SAX HPLC. […] The metabolism of [^3H]PMEA was also examined in both cell lines after longer periods (i.e., 8 and 12 hr) of incubation with 10 μM [^3H]PMEA.
(§13) Exponentially growing cultures were incubated with 10 μM [^3H] PMEA for 8 or 12 hr and the cell extracts were analyzed for PMEA and its metabolites by ion exchange HPLC, as described.
(§14) Exponentially growing CEM-SS and CEM-r1 cells were harvested by centrifugation, resuspended at 1×10^6 cells/ml in fresh medium in the presence of [^3H]PMEA or [^3H]bispom-PMEA, and incubated at 37° C. At the indicated time points, aliquots of the cells were removed and centrifuged through Nyosil 50 (W. F. Nye, Inc., New Bedford, Ma.) at 13,000×g for 60 seconds at 4° C. When bispom-PMEA was investigated, an aliquot of the cell-free medium was also removed and analyzed by HPLC for determination of extracellular metabolites. The cell pellet was extracted with 70% ice-cold methanol and the aqueous phase was collected and analyzed for intracellular tritiated PMEA or tritiated bispom-PMEA and their metabolites by using HPLC analysis, essentially as described previously (23, 24).
Series [8] deals with HIV-1IIIB in CEM-r1 cells. As to the kind of experiment: Antiviral activity (ED50, RT / p24 assay) in resistant cells. Type of series: cell-based. The source says:
(§10) As used herein, “pM” means picomolar, “nM” means nanmolar, “μM, means micromolar, “mM” means millimolar, “ul” or “μl” mean microliter, “ml” means milliliter, “l” means liter. […] “IC50” means the inhibitory concentration at which growth is arrested by 50 percent.
(§11) The two cell lines, CEM-SS and CEM-r1 were infected with HIV-IMB at a multiplicity of 0.01, and cultured for 6 days in the presence and absence of different concentrations of test drugs. The extent of virus production was monitored by in in-house p24 antigen capture assay (50).
The antiviral effects of the different drugs were monitored by RT assays according to previously described procedures (20, 21). CEM-SS or CEM-r1 cells were infected with an inoculum of HIV-1IIIB standardized to contain 1 RT cpm/cell, and the virus-infected cells were seeded at a concentration of 0.2×10^6 cells/ml in medium containing varying concentrations of PMEA (or other test compounds). After 5 days of incubation, the RT activity of the culture supernates was determined by previously described procedures (22). […] The reaction was initiated by addition of 10 ul of virus-containing tissue culture supernatant. After 1 hr of incubation, 10 ul of the reaction mixture were spotted on a Whatman DE-81 tilter paper, air dried, and washed four times with 2×standard saline citrate (0.3 M NaCl, 0.03 M sodium citrate). The filter papers were dried, transferred to a plastic bag containing scintillation cocktail, sealed, and counted in an LKB Betaplate reader. The drug concentrations yielding half-maximal RT activity (ED50) was calculated as a measure of the antiviral efficacy of the test compounds, using the nonlinear curve-fitting software Enzfitter (Elsevier Biosoft, Cambridge, UK).

Another series deals with CaCo-2 cells. The series can be described thus: PMEA transport in transwell culture. Type of series: in vitro ADME. From the text: A transwell culture which is permissive for cellular polarization may be used to measure the compartment to compartment flux of putative substrates. […] In addition, it is possible that expression of MPR4 depending if it is basal or apical (and this may vary by organ cultured) may determine if PMEA or PMEA-like drugs are absorbed.

Series [9] has as its system CEM-r1 cells. As to the kind of experiment: Uptake and metabolism of [3H]PMEA. The note with it: for Intracellular levels: CEM-r1, 10 μM [3H]PMEA.
Method: as §12, §13, §14
Series [10] concerns HIV-1IIIB in CEM-SS cells. As to the kind of experiment: Antiviral activity (ED50, RT / p24 assay) in wild type cells. The note with it: Human immunodeficiency virus 1, WT (CEM-SS) cells. Type of series: cell-based.
From the text: as §10, §11
The antiviral effects of the different drugs were monitored by RT assays according to previously described procedures (20, 21). […] After 5 days of incubation, the RT activity of the culture supernates was determined by previously described procedures (22). […] The filter papers were dried, transferred to a plastic bag containing scintillation cocktail, sealed, and counted in an LKB Betaplate reader. The drug concentrations yielding half-maximal RT activity (ED50) was calculated as a measure of the antiviral efficacy of the test compounds, using the nonlinear curve-fitting software Enzfitter (Elsevier Biosoft, Cambridge, UK).

Series [11] can be described thus: Cytotoxicity assay (growth inhibition, Coulter counter). The settings on record: human, CEM-SS cells (wild type, parental). The protocol: as §6, §7
Test in series [12]: as above
The note with it: human. On the procedure:
as §8, §9, §7

Where [13] appears, read: CEM-SS, 2 days of culture (Table 3).
Where [14] appears, read: CEM-r1, 2 days of culture (Table 3).

Regarding `CC(C)(C)C(=O)OCOP(=O)(COCCn1cnc2c(N)ncnc21)OCOC(=O)C(C)(C)C` [Bispom-PMEA, bis(pivaloyloxymethyl)-9-(2-phosphonylmethoxyethyl)adenine], the “Prodrug concentration above which the amount of PMEA effluxed did not increase significantly” value in the series on CEM-SS cells [1] (CEM-SS, 3 min incubation, efflux at 15 minutes) is reported as “higher than 2.2 mM”; in the series on CEM-r1 cells [5] (CEM-r1, 3 min incubation, efflux at 15 minutes) it was more than 4.4 mM. Moreover, the figures for the “Metabolite Levels, Cells” value in the series on CEM-SS cells [2] and in the series with CEM-r1 cells [3] were 0.03 µM and 0.04 µM, respectively. The “Metabolite Levels, Medium” value with CEM-SS cells [2] was 490 nM; in the series with CEM-r1 cells [3] it was 429 nM. Moreover, the “Radioactivity present in the cells detected as the intact pro-drug” value in the series on CEM-SS cells [2] (after incubation with [3H]bispom-PMEA, similar in parental and resistant cells) was approximately 2%. The “Initial uptake, difference between the two cell lines” value in the series on CEM-r1 cells [3] (1 μM [3H]bispom-PMEA, early time course (120 sec), CEM-SS vs CEM-r1) is listed as “no significant difference”. The IC50 with CEM-SS cells [4] (setting [13]) came to 0.26 µM; with CEM-r1 cells [6] (setting [14]), 32 µM. The “Relative Resistance” value with CEM-r1 cells [6] was found to be 123. Moreover, the “Cross-resistance of CEM-r1 cells (in words)” value in the series on CEM-r1 cells [6] (relative sensitivity of wild-type and CEM-r1 cells) is on record as “highly cross-resistant”.
For the compound `Nc1ncnc2c1ncn2CCOCP(=O)(O)O` [PMEA, 9-(2phosphonylmethoxyethyl)adenine], the “Cross-resistance of MDR mutant CEM/VLB100” value in the series on CEM/VLB100 is “did not exhibit any cross-resistance”. The Intracellular levels with CEM-SS cells [7] (8 hr) is 1.7 µM; with CEM-SS cells [7] (12 hr) it was 2.5 µM; in the series with CEM-r1 cells [9] (8 hr), 1.0 µM; in the series on CEM-r1 cells [9] (12 hr), 1 µM and 0.99 µM. For the same compound, the “Efflux kinetics, PMEA” value with CEM-SS cells [1] (Azide + Deoxyglucose) was more than 26 min; in the series with CEM-SS cells [1] (no treatment) it was more than 26 min; in the series with CEM-r1 cells [5] (CEMr-1, Azide + Deoxyglucose), more than 26 min; in the series with CEM-r1 cells [5] (CEMr-1, no treatment) it was 4.4 min. For the same compound, the Rate of efflux was 0.4 pmol/min/10^6 cells with CEM-SS cells [1] (parental CEM-SS cells) and 2.55 pmol/min/10^6 with CEM-r1 cells [5] (resistant CEM-r1 cells). Besides, the “Time to half-maximal clearance of intracellular radioactivity” value with CEM-SS cells [1] (parental CEM-SS cells, loaded with 1 μM [3H]bispom-PMEA, drug-free medium) is “about 60 min”. In [8] (CEM-r1 vs WT), the “Fold Resistance (antiviral activity)” value was more than 150. Also, the “Direction of transport in transwell culture” value in the series with CaCo-2 cells (CaCo-2) is “more rapidly transported from the apical to the basal side”. The “Metabolite Levels, Cells” value stood at 33.1 µM in the series with CEM-SS cells [2] and 13.3 µM in the series on CEM-r1 cells [3]. For the same compound, the “Metabolite Levels, Medium” value came to 4.8 nM in the series on CEM-SS cells [2] and 23.2 nM in the series on CEM-r1 cells [3]. The “Levels in CEM-r1 cells relative to those seen in parental cells” value in the series with CEM-r1 cells [3] (1 μM [3H]bispom-PMEA, 15 min) is “about one third”. The “Levels of extracellular PMEA, CEM-r1 vs parental CEM-SS” value in the series on CEM-r1 cells [3] (medium, 1 μM [3H]bispom-PMEA, 15 min) is given as approximately 5 fold. The “Intracellular level in CEM-r1 as percent of the wildtype level” value in the series with CEM-r1 cells [9] (CEM-r1 vs CEM-SS, 8 hr) is “(56%)”. Also, the IC50 with CEM-SS cells [4] (setting [13]) came to 34 µM; with CEM-SS cells [4] (read-out: Cytotoxicity IC50, WT (CEM-SS) cells (Table 5)) it was 80 µM; with CEM-SS cells [4] (read-out: Drug sensitivity (concentration to inhibit 50% growth), CEMss, 24 h exposure (Table 6)), 80 µM; in the series with CEM-r1 cells [6] (setting [14]) it was 6200 µM; in the series on CEM-r1 cells [6] (read-out: Cytotoxicity IC50, CEM-r1 cells (Table 5)), 20000 µM. Moreover, in the series with CEM-r1 cells [5], the “Increase in rate of efflux, CEM-r1 vs CEM-SS” value is listed as approximately 7 fold. Besides, the “Amount of PMEA effluxed in the presence or absence of PMEA in the medium” value with CEM-r1 cells [5] (CEM-r1, medium with 0.5 mM PMEA vs drug-free) was “no significant difference”. For the same compound, the “Time within which the majority of the radioactivity was excreted into the medium” value with CEM-r1 cells [5] (CEM-r1 cells, loaded with 2 μM [3H]bispom-PMEA, drug-free medium) was in the range of 20 to 30 min. Further, the “Relative Resistance” value in the series on CEM-r1 cells [6] was 182. In addition, in the series on CEM-r1 cells [6] (CEM-r1 vs parental CEM-SS), the “Resistance of CEM-r1 cells to the cytotoxic effects, compared with the parental cells” value is ~250 fold and > 250 fold. Moreover, the “Fold Resistance (cytotoxicity)” value with CEM-r1 cells [6] (ratio of IC50 of resistant line to IC50 of wild type) is 250.
As for prostaglandin A, in the series on CaCo-2 cells (CaCo-2 transwell), the “Effect on apical to basal transport of PMEA” value is “specifically inhibits” and the “Effect on basal to apical flux of PMEA” value was “no effect”.
Consider `Nc1ccn([C@@H]2CS[C@H](CO)O2)c(=O)n1` [3TC, lamivudine], for which the EC50 in series [8] (Human immunodeficiency virus 1, CEM-r1 cells, HIV) worked out at 1.1 µM; in series [10], 0.21 µM. The IC50 at 48 h in [11] was determined as 1000 µM; in series [12], 5000 µM.

The term EC50 denotes the concentration needed to bring the measured effect to its halfway point. A high value points to a need for much substance.
